Results taken from PMC11233931, “Remodeling tumor‐associated macrophage for anti‐cancer effects by rational design of irreversible inhibition of mitogen‐activated protein kinase‐activated protein kinase 2” (MedComm, 2024).

Assays:
Test in all cases: Eurofins kinase selectivity profile against 380 other human recombinant kinases (Table S2)
Format in all cases: biochemical
[1] = molecular target: T1, 380 human recombinant protein kinases (Homo sapiens, UniProt O15146); details: MuSK(h), read-out: Inhibition rate
T1 construct: purchased Eurofins (Celle Lévescault)
T1 sequence (O15146 24-869): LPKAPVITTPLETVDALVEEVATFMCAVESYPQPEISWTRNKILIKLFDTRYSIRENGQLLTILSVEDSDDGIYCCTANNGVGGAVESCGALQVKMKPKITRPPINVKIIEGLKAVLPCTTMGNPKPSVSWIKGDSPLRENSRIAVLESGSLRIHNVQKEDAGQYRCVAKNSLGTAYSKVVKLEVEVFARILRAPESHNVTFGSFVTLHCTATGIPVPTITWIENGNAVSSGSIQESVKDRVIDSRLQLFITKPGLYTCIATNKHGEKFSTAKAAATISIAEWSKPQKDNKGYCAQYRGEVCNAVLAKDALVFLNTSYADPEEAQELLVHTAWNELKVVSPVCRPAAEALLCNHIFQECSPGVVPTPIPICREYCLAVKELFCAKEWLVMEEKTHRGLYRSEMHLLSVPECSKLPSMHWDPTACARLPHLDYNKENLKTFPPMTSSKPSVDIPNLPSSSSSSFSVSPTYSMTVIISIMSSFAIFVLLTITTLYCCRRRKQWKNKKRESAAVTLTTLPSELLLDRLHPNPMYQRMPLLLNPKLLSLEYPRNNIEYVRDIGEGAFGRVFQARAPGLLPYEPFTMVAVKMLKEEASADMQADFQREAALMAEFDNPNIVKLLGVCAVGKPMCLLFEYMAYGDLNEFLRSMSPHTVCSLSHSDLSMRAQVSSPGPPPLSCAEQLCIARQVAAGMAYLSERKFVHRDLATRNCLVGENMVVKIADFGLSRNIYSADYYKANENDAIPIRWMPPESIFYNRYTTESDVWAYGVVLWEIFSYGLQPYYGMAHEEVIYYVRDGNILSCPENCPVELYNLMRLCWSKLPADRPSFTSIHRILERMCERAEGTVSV
In short: (§1)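 The inhibitor was sent to a contract lab and screened at various concentrations against 380 human recombinant protein kinases. This served as a counter-screen for MK2 specificity.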

[2] = molecular target: T2, 380 human recombinant protein kinases (Homo sapiens, UniProt O95747); details: OSR1(h), read-out: Inhibition rate
T2 construct: purchased Eurofins (Celle Lévescault)
T2 sequence (O95747 whole entry): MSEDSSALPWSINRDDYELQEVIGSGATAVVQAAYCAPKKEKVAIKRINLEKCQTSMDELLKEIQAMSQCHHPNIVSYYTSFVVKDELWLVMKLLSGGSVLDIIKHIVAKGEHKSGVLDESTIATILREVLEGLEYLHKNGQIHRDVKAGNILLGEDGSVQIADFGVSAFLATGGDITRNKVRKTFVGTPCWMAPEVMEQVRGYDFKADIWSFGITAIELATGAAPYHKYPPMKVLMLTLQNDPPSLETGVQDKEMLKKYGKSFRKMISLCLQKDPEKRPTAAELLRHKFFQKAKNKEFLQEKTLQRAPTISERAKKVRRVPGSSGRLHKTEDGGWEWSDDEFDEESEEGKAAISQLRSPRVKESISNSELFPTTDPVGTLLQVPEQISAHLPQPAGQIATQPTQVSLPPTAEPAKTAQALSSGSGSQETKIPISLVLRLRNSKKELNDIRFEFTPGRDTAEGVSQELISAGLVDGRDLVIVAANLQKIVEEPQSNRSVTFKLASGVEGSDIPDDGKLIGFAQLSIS
In short: as §1

[3] = molecular target: T3, 380 human recombinant protein kinases (Homo sapiens, UniProt P42681); details: Txk(h), read-out: Inhibition rate (%)
T3 construct: purchased Eurofins (Celle Lévescault)
T3 sequence (P42681 1-527): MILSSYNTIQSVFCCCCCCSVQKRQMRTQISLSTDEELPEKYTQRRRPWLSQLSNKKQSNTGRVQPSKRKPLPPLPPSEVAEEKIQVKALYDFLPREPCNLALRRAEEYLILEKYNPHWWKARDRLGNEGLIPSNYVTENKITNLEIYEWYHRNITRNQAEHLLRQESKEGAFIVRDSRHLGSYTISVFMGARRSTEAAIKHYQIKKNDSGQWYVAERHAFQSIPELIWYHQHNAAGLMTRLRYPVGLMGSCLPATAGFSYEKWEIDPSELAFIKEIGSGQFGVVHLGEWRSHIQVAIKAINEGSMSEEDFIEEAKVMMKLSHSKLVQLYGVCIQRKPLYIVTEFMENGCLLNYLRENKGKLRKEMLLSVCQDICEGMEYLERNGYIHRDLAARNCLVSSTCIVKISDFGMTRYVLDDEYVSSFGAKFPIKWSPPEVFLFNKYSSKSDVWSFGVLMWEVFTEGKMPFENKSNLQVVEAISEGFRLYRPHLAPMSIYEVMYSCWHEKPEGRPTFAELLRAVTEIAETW
In short: as §1

[4] = molecular target: T4, 380 human recombinant protein kinases (Homo sapiens, UniProt Q8TF76); details: Haspin(h), read-out: Inhibition rate
T4 construct: purchased Eurofins (Celle Lévescault)
T4 sequence (Q8TF76 1-798): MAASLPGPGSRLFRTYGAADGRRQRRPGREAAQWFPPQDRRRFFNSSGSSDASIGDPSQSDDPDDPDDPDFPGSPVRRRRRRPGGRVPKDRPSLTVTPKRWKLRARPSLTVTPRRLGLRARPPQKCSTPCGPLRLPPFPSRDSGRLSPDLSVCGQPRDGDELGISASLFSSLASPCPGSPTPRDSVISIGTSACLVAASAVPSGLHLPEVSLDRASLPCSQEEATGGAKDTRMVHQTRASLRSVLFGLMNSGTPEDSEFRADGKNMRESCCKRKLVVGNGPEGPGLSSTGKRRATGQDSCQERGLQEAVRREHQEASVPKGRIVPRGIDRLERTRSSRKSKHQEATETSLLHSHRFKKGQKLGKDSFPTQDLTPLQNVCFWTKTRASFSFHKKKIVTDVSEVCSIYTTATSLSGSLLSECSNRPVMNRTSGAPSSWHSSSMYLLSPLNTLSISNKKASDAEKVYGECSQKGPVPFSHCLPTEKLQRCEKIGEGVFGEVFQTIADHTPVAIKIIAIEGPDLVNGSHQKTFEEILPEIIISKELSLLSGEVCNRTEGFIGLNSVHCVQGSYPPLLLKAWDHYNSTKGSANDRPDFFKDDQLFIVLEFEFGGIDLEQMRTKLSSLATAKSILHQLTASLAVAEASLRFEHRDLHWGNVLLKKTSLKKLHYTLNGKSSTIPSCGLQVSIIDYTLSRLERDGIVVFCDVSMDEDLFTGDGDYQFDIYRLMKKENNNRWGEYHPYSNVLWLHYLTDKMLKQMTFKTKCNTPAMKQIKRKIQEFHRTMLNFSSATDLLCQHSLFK
In short: as §1

[5] = molecular target: T5, 380 human recombinant protein kinases (Homo sapiens, UniProt Q9BYT3); details: STK33(h), read-out: Inhibition rate (%)
T5 construct: purchased Eurofins (Celle Lévescault)
T5 sequence (Q9BYT3 whole entry): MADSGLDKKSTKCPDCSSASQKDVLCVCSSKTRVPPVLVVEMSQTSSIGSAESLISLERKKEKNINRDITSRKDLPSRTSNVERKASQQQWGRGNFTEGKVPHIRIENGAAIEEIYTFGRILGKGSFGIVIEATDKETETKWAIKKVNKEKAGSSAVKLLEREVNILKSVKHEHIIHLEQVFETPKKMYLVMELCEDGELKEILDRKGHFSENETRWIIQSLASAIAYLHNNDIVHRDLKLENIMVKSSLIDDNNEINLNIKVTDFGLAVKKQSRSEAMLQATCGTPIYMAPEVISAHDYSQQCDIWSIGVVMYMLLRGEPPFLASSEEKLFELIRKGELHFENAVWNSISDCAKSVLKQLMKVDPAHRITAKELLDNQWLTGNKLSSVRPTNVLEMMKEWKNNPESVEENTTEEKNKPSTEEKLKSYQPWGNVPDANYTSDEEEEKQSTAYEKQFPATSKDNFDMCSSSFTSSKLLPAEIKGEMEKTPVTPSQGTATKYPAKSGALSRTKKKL
In short: as §1

For `C=CC(=O)Nc1cc(-c2cc(-c3cc4c([nH]3)CCNC4=O)ccn2)ccc1OC(F)(F)F` [compound 11], the inhibition at 0.01 µM ([1]; 10 nM) was 7%, the inhibition at 0.1 µM ([1]; 100 nM) was 7% and the inhibition at 1 µM ([1]; 1000 nM) was 7%. The inhibition at 0.01 µM ([2]; 10 nM) was -1%, the inhibition at 0.1 µM ([2]; 100 nM) was 5% and the inhibition at 1 µM ([2]; 1000 nM) was 11%. It also gave an inhibition at 0.01 µM ([3]; 10 nM) of -3%, an inhibition at 0.1 µM ([3]; 100 nM) of 1% and an inhibition at 1 µM ([3]; 1000 nM) of -1%. For the same compound, the inhibition at 0.01 µM ([4]; 10 nM) was 1%, the inhibition at 0.1 µM ([4]; 100 nM) was 11% and the inhibition at 1 µM ([4]; 1000 nM) was 46%. The inhibition at 0.01 µM ([5]; 10 nM) was 8%, the inhibition at 0.1 µM ([5]; 100 nM) was 18% and the inhibition at 1 µM ([5]; 1000 nM) was 64%.
